This is an account of results in article PMC10957239 (Carbohydrate research, 2024).

For the experiment, the target named is T1, rhDectin-2 (Homo sapiens, UniProt Q6EIG7).
T1 sequence (Q6EIG7 42-209 limits assumed): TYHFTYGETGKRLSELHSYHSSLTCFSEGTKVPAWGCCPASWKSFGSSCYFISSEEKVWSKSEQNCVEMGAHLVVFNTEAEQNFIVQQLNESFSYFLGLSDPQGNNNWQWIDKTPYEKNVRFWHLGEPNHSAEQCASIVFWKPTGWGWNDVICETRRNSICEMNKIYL
As to the kind of experiment: biolayer interferometry. In kind it is binding. Background: BLI is a label-free optical method that tracks binding on a fibre tip over time.

Usually Kd stands for the concentration at which binding is half-saturated. Lower therefore signals higher affinity. `C=CCO[C@H]1O[C@H](CO)[C@@H](OP(=O)(O)O[C@H]2O[C@H](CO)[C@@H](O)[C@H](O)[C@@H]2O)[C@H](O)[C@@H]1O` [compound 7, Allyl α-D-mannopyranoside α-D-mannopyranosyl-4-sodium phosphate] registered a dissociation constant Kd of 13.6 µM.
